Earlier results in patent US11655474B2, “Suppression of pathological angiogenesis by inhibition of NR2F6” (Regen Biopharma, Inc., priority 2019, dated 2023).

Legend:
[1] = tested on: human microvascular ECs; settings: human microvascular ECs cultured in tumor-conditioned medium
[2] = tested on: ovarian cancer patients
[3] = subset that received paclitaxel with the antibody

Molecule | tumor CM-induced MDR1 up-regulation [1] | HR, overall survival ([2]; bevacizumab plus chemotherapy compared with chemotherapy alone, 95 percent CI: 0.69, 1.14) | median progression free survival (PFS) ([2]; bevacizumab plus chemotherapy, ovarian cancer patients, chemotherapy alone 3.4 months) [months] | median overall survival (OS) ([2]; bevacizumab plus chemotherapy, chemotherapy alone 13.3 months) [months] | improvement in median OS [2, 3] [month] | improvement in median PFS [2, 3] [month] | HR, PFS ([2]; subset that received paclitaxel with the antibody, 95 percent CI: 0.31, 0.72) | HR, OS ([2]; subset that received paclitaxel with the antibody, 95 percent CI: 0.41, 1.01) | median PFS ([2]; subset that received paclitaxel with the antibody, versus 3.9 months) [months] | median OS ([2]; subset that received paclitaxel with the antibody, versus 13.2 months) [months] | objective response rate ([2]; subset that received paclitaxel with the antibody, versus 30 percent) [%]
COc1cc2nccc(Oc3ccc(NC(=O)Nc4ccc(F)cc4F)c(F)c3)c2cc1OC [Ki8751] | blocked |  |  |  |  |  |  |  |  |  | 
bevacizumab: antibody which binds VEGF |  | 0.89 | 6.8 | 16.6 | 9.2 | 5.7 | 0.47 | 0.64 | 9.6 | 22.4 | 53
